Experimental data reported in patent publication US4937235A, “3- or 4-substituted oxotremorine derivatives” (American Cyanamid Company, priority 1989, dated 1990).
Structures can show the parent of a compound that is named as a salt.

Legend:
[1] = molecular target: muscarinic cholinergic receptor; experiment: [3H]-Cis-methyldioxolane (3H-CD) Binding Assay (High Affinity); conditions: rat cerebral cortex, 1.0 nM 3H-CD, 25° C., 120 minutes, pH 7.4
[2] = molecular target: muscarinic cholinergic receptor; experiment: [3H] Quinuclidinyl Benzilate (3H-QNB) Binding Assay; design: species or system rat; conditions: pH 7.4
[3] = rat cerebral cortex, 0.25 nM 3H-QNB, 25° C., 120 minutes

## CN(C)CC#CCN1C[C@@H](O)CC1=O
[1]
  IC50: 10.1 µM
[2]
  IC50: 1510 µM

## O=C1CCCN1CC#CCN1CCC(O)C1 (racemic) [(Racemic)-1-[4-(3-Hydroxy-1-pyrrolidinyl)-2-butynyl]-2-pyrrolidinone]
[1]
  IC50: 0.425 µM
[2]
  IC50: 395 µM

## COC1CCN(CC#CCN2CCCC2=O)C1 (racemic) [(Racemic)-1-[4-(3-Methoxy-1-pyrrolidinyl)-2-butytnyl]-2-pyrrolidinone, (Racemic)-1-[4-(3-Methoxy-1-pyrrolidinyl)-2-butynyl]-2-pyrrolidinone]
[1]
  IC50: 1.75 µM
[2]
  IC50: 110 µM

## CC(=O)OC1CCN(CC#CCN2CCCC2=O)C1 (racemic) [(Racemic)-1-[4-[3-(Acetyloxy)-1-pyrrolidinyl]-2-butynyl]-2-pyrrolidinone]
[1]
  IC50: 1.33 µM
[2]
  IC50: 313 µM

## CC(=O)OC1CCN(CC#CCN(C)C(C)=O)C1 (racemic) [(Racemic)-N-[4-(3-(Acetyloxy)-1-pyrrolidinyl]-2-butynyl]-N-methyl acetamide, (Racemic)-N-[4-[3-(Acetyloxy)-1-pyrrolidinyl]-2-butynyl]-N-methyl acetamide]
[1]
  IC50: 5.46 µM
[2]
  IC50: 1930 µM

## CC(=O)N(C)CC#CCN1CCC(O)C1 (racemic) [(Racemic)-N-[4-(3-Hydroxy-1-pyrrolidinyl)-2-butynyl]-N-methyl acetamide]
[1]
  IC50: 2.01 µM
[2]
  IC50: 1190 µM

## COC1CCN(CC#CCN(C)C(C)=O)C1 (racemic) [(Racemic)-N-[4-(3-Methoxy-1-pyrrolidinyl)-2-butynyl]-N-methyl acetamide]
[1]
  IC50: 1.37 µM
[2]
  IC50: 377 µM

## O=C1CCCN1CC#CCN1CCCCC1 [1-[4-(1-Piperidinyl)-2-butynyl]-2-pyrrolidinone, reference compound]
[1]
  IC50: 0.077 µM
[2]
  IC50: 2 µM

## CN(C)CC#CCN1CCCC1=O [1-[4-(Dimethylamino)-2-butynyl]-2-pyrrolidinone, reference compound]
[1]
  IC50: 0.044 µM
[2]
  IC50: 163 µM

## O=C1C(S)CCN1CC#CCN1CCCCC1 (centres unmarked) [3-Mercapto-1-[4-(1-piperidinyl)-2-butynyl]-2-pyrrolidinone]
[1]
  IC50: 0.587 µM
[2]
  IC50: 11 µM

## CN(C)CC#CCN1CC[C@@H](OC(=O)c2ccc([N+](=O)[O-])cc2)C1=O [(R)-1-[4-(Dimethylamino)-2-butynyl]-3-[(4-nitrobenzoyl)oxy]-2-pyrrolidinone]
[1]
  IC50: 5.01 µM
[2]; [3]
  IC50: 113 µM

## CN(C)CC#CCN1CC[C@@H](O)C1=O [(R)-1-[4-(Dimethylamino)-2-butynyl]-3-hydroxy-2-pyrrolidinone]
[1]
  IC50: 0.578 µM
[2]
  IC50: 1470 µM

## CN(C)CC#CCN1CC[C@@H](S)C1=O [(R)-1-[4-(Dimethylamino)-2-butynyl]-3-mercapto-2-pyrrolidinone, monohydrochloride]
[1]
  IC50: 0.076 µM
[2]
  IC50: 31 µM

## CN(C)CC#CCN1C[C@H](O)CC1=O [(R)-1-[4-(Dimethylamino)-2-butynyl]-4-hydroxy-2-pyrrolidinone]
[1]
  IC50: 0.578 µM
[2]
  IC50: 2350 µM

## CC(=O)O[C@@H]1CCN(CC#CCN2CCCCC2)C1=O [(R)-3-(Acetyloxy)-1-[4-(1-piperidinyl)-2-butynyl]-2-pyrrolidinone]
[1]
  IC50: 4.47 µM
[2]
  IC50: 419 µM

## CC(=O)O[C@@H]1CCN(CC#CCN2CCCC2)C1=O [(R)-3-(Acetyloxy)-1-[4-(1-pyrrolidinyl)-2-butynyl]-2-pyrrolidinone]
[1]
  IC50: 0.547 µM
[2]
  IC50: 231 µM

## O=C1[C@H](O)CCN1CC#CCN1CCCCC1 [(R)-3-Hydroxy-1-[4-(1-piperidinyl)-2-butynyl]-2-pyrrolidinone]
[1]
  IC50: 3.46 µM
[2]
  IC50: 84 µM

## O=C1[C@H](O)CCN1CC#CCN1CCCC1 [(R)-3-Hydroxy-1-[4-(1-pyrrolidinyl)-2-butynyl]-2-pyrrolidinone]
[1]
  IC50: 0.134 µM
[2]
  IC50: 47 µM

## O=C1[C@H](S)CCN1CC#CCN1CCCC1 [(R)-3-Mercapto-1-[4-(1-pyrrolidinyl)-2-butynyl]-2-pyrrolidinone]
[1]
  IC50: 0.007 µM
[2]
  IC50: 1 µM

## CO[C@@H]1CCN(CC#CCN2CCCCC2)C1=O [(R)-3-Methoxy-1-[4-(1-piperidinyl)-2-butynyl]-2-pyrrolidinone]
[1]
  IC50: 28.1 µM
[2]
  IC50: 459 µM

## CO[C@@H]1CCN(CC#CCN2CCCC2)C1=O [(R)-3-Methoxy-1-[4-(1-pyrrolidinyl)-2-butynyl]-2-pyrrolidinone]
[1]
  IC50: 1.97 µM
[2]
  IC50: 283 µM

## O=C(O[C@@H]1CCN(CC#CCN2CCCCC2)C1=O)c1ccc([N+](=O)[O-])cc1 [(R)-3-[(4-Nitrobenzoyl)oxy]-1-[4-(1-piperidinyl)-2-butynyl]-2-pyrrolidinone]
[1]
  IC50: 0.937 µM
[2]; [3]
  IC50: 43 µM

## O=C(O[C@@H]1CCN(CC#CCN2CCCC2)C1=O)c1ccc([N+](=O)[O-])cc1 [(R)-3-[(4-Nitrobenzoyl)oxy]-1-[4-(1-pyrrolidinyl)-2-butynyl]-2-pyrrolidinone]
[1]
  IC50: 4.29 µM
[2]; [3]
  IC50: 59 µM

## CC(=O)O[C@@H]1CC(=O)N(CC#CCN2CCCCC2)C1 [(R)-4-(Acetyloxy)-1-[4-(1-piperidinyl)-2-butynyl]-2-pyrrolidinone]
[1]
  IC50: 8.08 µM
[2]
  IC50: 181 µM

## CC(=O)O[C@@H]1CC(=O)N(CC#CCN2CCCC2)C1 [(R)-4-(Acetyloxy)-1-[4-(1-pyrrolidinyl)-2-butynyl]-2-pyrrolidinone]
[1]
  IC50: 0.914 µM
[2]
  IC50: 46 µM

## CC(=O)O[C@@H]1CC(=O)N(CC#CCN(C)C)C1 [(R)-4-(Acetyloxy)-1-[4-(dimethylamino)-2-butynyl]-2-pyrrolidinone]
[1]
  IC50: 11.5 µM
[2]
  IC50: 1780 µM

## O=C1C[C@@H](O)CN1CC#CCN1CCCCC1 [(R)-4-Hydroxy-1-[4-(1-piperidinyl)-2-butynyl]-2-pyrrolidinone]
[1]
  IC50: 3.79 µM
[2]
  IC50: 166 µM

## O=C1C[C@@H](O)CN1CC#CCN1CCCC1 [(R)-4-Hydroxy-1-[4-(1-pyrrolidinyl)-2-butynyl]-2-pyrrolidinone]
[1]
  IC50: 0.053 µM
[2]
  IC50: 52 µM

## CC(=O)S[C@@H]1CCN(CC#CCN(C)C)C1=O [(R)-S-[1-[4-(Dimethylamino)-2-butynyl]-2-oxo-3-pyrrolidinyl]ethanethioic acid ester]
[1]
  IC50: 0.062 µM
[2]
  IC50: 20 µM

## CC(=O)S[C@@H]1CCN(CC#CCN2CCCCC2)C1=O [(R)-S-[2-Oxo-1-(4-piperidinyl-2-butynyl)-3-pyrrolidinyl]etha] [(R)-S-[2-Oxo-1-(4-piperidinyl-2-butynyl)-3-pyrrolidinyl]ethanethioic acid ester]
[2]
  IC50: 91 µM

## CC(=O)S[C@@H]1CCN(CC#CCN2CCCCC2)C1=O [(R)-S-[2-Oxo-1-(4-piperidinyl-2-butynyl)-3-pyrrolidinyl]ethanethioic acid ester]
[1]
  IC50: 0.946 µM

## CC(=O)S[C@@H]1CCN(CC#CCN2CCCCC2)C1=O [(R)-S-[2-Oxo-1-[4-(1-piperidinyl)-2-butynyl]-3-pyrrolidinyl]] [(R)-S-[2-Oxo-1-[4-(1-piperidinyl)-2-butynyl]-3-pyrrolidinyl]ethanethioic acid ester]
[1]
  IC50: 0.03 µM
[2]
  IC50: 4.3 µM

## CN(C)CC#CCN1CC[C@H](O[Si](C)(C)C(C)(C)C)C1=O [(S)-1-[4-(Dimethylamino)-2-butynyl]-3-[[(1,1-dimethylethyl)dimethylsilyl]oxy]-2-pyrrolidinone]
[1]
  IC50: 19.5 µM
[2]
  IC50: 200 µM

## CC(=O)O[C@H]1CCN(CC#CCN2CCCC2=O)C1 [(S)-1-[4-[3-(Acetyloxy)-1-pyrrolidinyl]-2-butynyl]-2-pyrrolidinone]
[1]
  IC50: 2.02 µM
[2]
  IC50: 2320 µM

## CC(=O)O[C@H]1CCN(CC#CCN2CCCCC2)C1=O [(S)-3-(Acetyloxy)-1-[4-(1-piperidinyl)-2-butynyl]-2-pyrrolidinone]
[1]
  IC50: 1.45 µM
[2]
  IC50: 367 µM

## CC(=O)O[C@H]1CCN(CC#CCN2CCCC2)C1=O [(S)-3-(Acetyloxy)-1-[4-(1-pyrrolidinyl)-2-butynyl]-2-pyrrolidinone]
[1]
  IC50: 0.152 µM
[2]
  IC50: 122 µM

## CC(=O)O[C@H]1CCN(CC#CCN(C)C)C1=O [(S)-3-(Acetyloxy)-1-[4-(dimethylamino)-2-butynyl]-2-pyrrolidinone]
[1]
  IC50: 0.521 µM
[2]
  IC50: 1360 µM

## O=C1[C@@H](O)CCN1CC#CCN1CCCCC1 [(S)-3-Hydroxy-1-[4-(1-piperidinyl)-2-butynyl]-2-pyrrolidinone]
[1]
  IC50: 0.476 µM
[2]
  IC50: 22 µM

## O=C1[C@@H](O)CCN1CC#CCN1CCCC1 [(S)-3-Hydroxy-1-[4-(1-pyrrolidinyl)-2-butynyl]-2-pyrrolidinone]
[1]
  IC50: 0.009 µM
[2]
  IC50: 11 µM

## O=C1[C@@H](S)CCN1CC#CCN1CCCCC1 [(S)-3-Mercapto-1-[4-(1-piperidinyl)-2-butynyl]-2-pyrrolidinone, monohydrochloride]
[1]
  IC50: 0.955 µM
[2]
  IC50: 2.5 µM

## O=C1[C@@H](S)CCN1CC#CCN1CCCC1 [(S)-3-Mercapto-1-[4-(1-pyrrolidinyl)-2-butynyl]-2-pyrrolidinone, monohydrochloride]
[1]
  IC50: 0.048 µM
[2]
  IC50: 2 µM

## CO[C@H]1CCN(CC#CCN2CCCCC2)C1=O [(S)-3-Methoxy-1-[4-(1-piperidinyl)-2-butynyl]-2-pyrrolidinone]
[1]
  IC50: 33.1 µM
[2]
  IC50: 673 µM

## CO[C@H]1CCN(CC#CCN2CCCC2)C1=O [(S)-3-Methoxy-1-[4-(1-pyrrolidinyl)-2-butynyl]-2-pyrrolidinone]
[1]
  IC50: 1.17 µM
[2]
  IC50: 433 µM

## CC(C)(C)[Si](C)(C)O[C@H]1CCN(CC#CCN2CCCCC2)C1=O [(S)-3-[[(1,1-Dimethylethyl)dimethylsilyl]oxy]-1-[4-(1-piperidinyl)-2-butynyl]-2-pyrrolidinone]
[1]
  IC50: 0.161 µM
[2]
  IC50: 24 µM

## CNC(=O)O[C@H]1CCN(CC#CCN2CCCCC2)C1=O [(S)-3-[[(Methylamino)carbonyl]oxy]-1-[4-(1-piperidinyl)-2-butynyl]-2-pyrrolidinone]
[1]
  IC50: 87 µM
[2]; [3]
  IC50: 744 µM

## CC(=O)O[C@H]1CC(=O)N(CC#CCN2CCCCC2)C1 [(S)-4-(Acetyloxy)-1-[4-(1-piperidinyl)-2-butynyl]-2-pyrrolidinone]
[1]
  IC50: 9.57 µM
[2]
  IC50: 159 µM

## CC(=O)O[C@H]1CC(=O)N(CC#CCN2CCCC2)C1 [(S)-4-(Acetyloxy)-1-[4-(1-pyrrolidinyl)-2-butynyl]-2-pyrrolidinone]
[1]
  IC50: 6.11 µM
[2]
  IC50: 112 µM
